Laboratory results as given in ChEMBL document CHEMBL2401646 (Bioorg Med Chem Lett, 2013).
Active and inactive are the calls of the source. The calls are words filed in the database; no cut-off is given here.

Key:
[1] = tested on: MKN-45; assay: Antiproliferative activity against human MKN45 cells after 3 days by CellTiter-Glo assay; format: functional, cell-based; conditions: MKN-45, 72 h
[2] = species: Homo sapiens; assay: Ratio of IC50 for cMET Y1230H mutant (unknown origin) to IC50 for wild type cMET (unknown origin)
[3] = tested on: KARPAS-299; assay: Antitumor activity against human KARPAS299 xenograft model assessed as tumor growth inhibition at 50 mg/kg qd; format: functional; conditions: read-out: TGI
[4] = species: Homo sapiens; assay: Ratio of IC50 for cMET Y1230C mutant (unknown origin) to IC50 for wild type cMET (unknown origin)
[5] = biological target: Cytochrome P450 3A4 (Homo sapiens, UniProt P08684); assay: Inhibition of CP3A4 (unknown origin)
[6] = tested on: MKN-45; assay: Antitumor activity against human MKN45 cells xenografted in nu/nu CD1 mouse model assessed as maximum tumor regression at 50 mg/kg, po qd for 14 days; format: functional
[7] = tested on: Mus musculus; assay: Toxicity in human MKN45 cells xenografted nu/nu CD1 mouse model assessed as body weigh loss at 200 mg/kg, po qd for 14 days; format: organism-based, MKN-45; parameters: dose 200 mg/kg, route oral; conditions: in vivo, 336 h
[8] = tested on: MKN-45; assay: Antitumor activity against human MKN45 cells xenografted in nu/nu CD1 mouse model assessed as tumor growth inhibition at 200 mg/kg, po qd for 14 days; format: functional; conditions: MKN-45, 336 h, read-out: TGI
[9] = tested on: MKN-45; assay: Antitumor activity against human MKN45 cells xenografted in nu/nu CD1 mouse model assessed as maximum tumor regression at 100 mg/kg, po qd for 14 days; format: functional
[10] = AUC (0 to last) in CD1 mouse at 20 mg/kg, po; format: ADME, organism-based; parameters: dose 20 mg/kg, route oral, time 0 - last; conditions: plasma
[11] = Cmax in CD1 mouse at 20 mg/kg, po; format: ADME, organism-based; parameters: dose 20 mg/kg, route oral; conditions: in vivo
[12] = tested on: Mus musculus; assay: Toxicity in human MKN45 cells xenografted nu/nu CD1 mouse model assessed as body weigh loss at 50 mg/kg, po qd for 14 days; format: organism-based, MKN-45; parameters: dose 50 mg/kg, route oral; conditions: in vivo, 336 h
[13] = Oral bioavailability in CD1 mouse at 20 mg/kg; format: ADME, organism-based; conditions: in vivo
[14] = tested on: MKN-45; assay: Antitumor activity against human MKN45 cells xenografted in nu/nu CD1 mouse model assessed as maximum tumor regression at 25 mg/kg, po qd for 14 days; format: functional
[15] = tested on: Mus musculus; assay: Toxicity in human MKN45 cells xenografted nu/nu CD1 mouse model assessed as body weigh loss at 100 mg/kg, po qd for 14 days; format: organism-based, MKN-45; parameters: dose 100 mg/kg, route oral; conditions: in vivo, 336 h
[16] = tested on: Mus musculus; assay: Toxicity in human MKN45 cells xenografted nu/nu CD1 mouse model assessed as body weigh loss at 25 mg/kg, po qd for 14 days; format: organism-based, MKN-45; parameters: dose 25 mg/kg, route oral; conditions: in vivo, 336 h
[17] = tested on: MKN-45; assay: Antitumor activity against human MKN45 cells xenografted in nu/nu CD1 mouse model assessed as tumor growth inhibition at 25 mg/kg, po qd for 14 days; format: functional; conditions: MKN-45, 336 h, read-out: TGI
[18] = tested on: MKN-45; assay: Antitumor activity against human MKN45 cells xenografted in nu/nu CD1 mouse model assessed as tumor growth inhibition at 50 mg/kg, po qd for 14 days; format: functional; conditions: MKN-45, 336 h, read-out: TGI
[19] = tested on: MKN-45; assay: Antitumor activity against human MKN45 cells xenografted in nu/nu CD1 mouse model assessed as maximum tumor regression at 200 mg/kg, po qd for 14 days; format: functional
[20] = tested on: MKN-45; assay: Antitumor activity against human MKN45 cells xenografted in nu/nu CD1 mouse model assessed as tumor growth inhibition at 100 mg/kg, po qd for 14 days; format: functional; conditions: MKN-45, 336 h, read-out: TGI
[21] = Permeability of the compound at pH 7.4 by PAMPA; format: ADME; conditions: read-out: permeability
[22] = Clearance in CD1 mouse at 2 mg/kg, iv; format: ADME, organism-based; parameters: dose 2 mg/kg, route intravenous; conditions: in vivo
[23] = Half life in CD1 mouse at 2 mg/kg, iv; format: ADME, organism-based; parameters: dose 2 mg/kg, route intravenous; conditions: in vivo
[24] = Volume of distribution at steady state in CD1 mouse at 2 mg/kg, iv; format: ADME, organism-based; parameters: dose 2 mg/kg, route intravenous; conditions: in vivo, read-out: Vdss
[25] = species: Homo sapiens; conditions: 1 uM
Description: Inhibition of aurora kinase (unknown origin) autophosphorylation at 1 uM

[26] = biological target: Tyrosine-protein kinase ABL1 (Homo sapiens) (UniProt P00519); conditions: 1 uM
Description: Inhibition of Abl (unknown origin) autophosphorylation at 1 uM

[27] = tested on: Mus musculus; assay: Inhibition of MET autophosphorylation at Y1349 in human MKN45 cells xenografted in mouse at 100 mg/kg, po up to 8 hrs; format: functional, organism-based; parameters: dose 100 mg/kg; conditions: MKN-45
[28] = biological target: Hepatocyte growth factor receptor (Homo sapiens, UniProt P08581); conditions: 1 uM
Description: Inhibition of cMET (unknown origin) autophosphorylation at 1 uM

[29] = biological target: Tyrosine-protein kinase ABL2 (Homo sapiens) (UniProt P42684); conditions: 1 uM
Description: Inhibition of ARG (unknown origin) autophosphorylation at 1 uM

[30] = tested on: KARPAS-299; assay: Antitumor activity against human KARPAS299 xenograft model assessed as tumor growth inhibition up to 200 mg/kg qd; format: functional, organism-based; parameters: dose 200 mg/kg

Compound: CC(Oc1c(N)ncc2c(-c3cnn(C4CCNCC4)c3)coc12)c1c(Cl)ccc(Cl)c1Cl (racemic)
- IC50 [1]: 1300 nM

Compound: C[C@@H](Oc1cc(-c2cnn(C3CCNCC3)c2)cnc1N)c1c(Cl)ccc(F)c1Cl [CRIZOTINIB]
- Ratio IC50 [2]: 8
- inhibition in vivo at 50 mg/kg [3]: 96%
- Ratio IC50 [4]: > 600

Compound: C[C@H](Oc1c(N)ncc2c(-c3cnn(C4CCNCC4)c3)coc12)c1c(Cl)ccc(F)c1Cl
- IC50 [1]: 4500 nM

Compound: C#CCC(Oc1c(N)ncc2c(-c3cnn(C4CCNCC4)c3)coc12)c1c(Cl)ccc(F)c1Cl (racemic)
- IC50 [1]: 360 nM
- IC50 [5]: 1600 nM

Compound: C[C@@H](Oc1c(N)ncc2c(-c3ccccn3)coc12)c1c(Cl)ccc(F)c1Cl
- IC50 [1]: 4600 nM

Compound: CC(Oc1c(N)ncc2c(-c3cnn(C4CCNCC4)c3)coc12)c1c(Cl)ccc(F)c1Cl (racemic)
- IC50 [1]: 570 nM
- IC50 [5]: > 20000 nM

Compound: CS(=O)(=O)O.C[C@@H](Oc1c(N)ncc2c(C3=CCN(C(N)=O)CC3)coc12)c1c(Cl)ccc(F)c1Cl
- Activity [6]: 0%
- Activity [7]: 3%
- inhibition in vivo at 200 mg/kg [8]: 100%
- Activity [9]: 27%
- AUC(0-t) [10]: 5420 ng·h/mL
- Cmax [11]: 4800 nM
- Activity [12]: 2%
- bioavailability [13]: 83%
- Activity [14]: 0%
- Activity [15]: 3%
- Activity [16]: 6%
- inhibition in vivo at 25 mg/kg [17]: 13%
- inhibition in vivo at 50 mg/kg [18]: 51%
- Activity [19]: 49%
- inhibition in vivo at 100 mg/kg [20]: 100%

Compound: COC(=O)N1CC=C(c2coc3c(O[C@H](C)c4c(Cl)ccc(F)c4Cl)c(N)ncc23)CC1
- IC50 [1]: 850 nM

Compound: C[C@@H](Oc1c(N)ncc2c(-c3cnn(C4CCNCC4)c3)coc12)c1c(Cl)ccc(F)c1Cl.Cl.Cl.Cl.Cl
- AUC(0-t) [10]: 509 ng·h/mL
- Cmax [11]: 150 nM
- bioavailability [13]: 35%

Compound: OCCn1cc(-c2cnc3nnn(Cc4ccc5ncccc5c4)c3n2)cn1
- Ratio IC50 [2]: 8
- Ratio IC50 [4]: > 600

Compound: C[C@@H](Oc1c(N)ncc2c(-c3ccccc3)coc12)c1c(Cl)ccc(F)c1Cl
- IC50 [1]: 11000 nM

Compound: CC(=O)N1CC=C(c2coc3c(O[C@H](C)c4c(Cl)ccc(F)c4Cl)c(N)ncc23)CC1
- IC50 [1]: 330 nM
- Papp [21]: 199 ×10⁻⁶ cm/s

Compound: CC(Oc1c(N)ncc2c(-c3cnn(C4CCNCC4)c3)coc12)c1cc(F)ccc1Cl (racemic)
- IC50 [1]: 6400 nM

Compound: C[C@@H](Oc1c(N)ncc2c(-c3cnn(C4CCNCC4)c3)coc12)c1c(Cl)ccc(F)c1Cl
- IC50 [1]: 300 nM
- clearance [22]: 227 mL/min/kg
- half-life [23]: 36 min
- Vd [24]: 12 L/kg

Compound: Nc1ncc2c(-c3cnn(C4CCNCC4)c3)coc2c1OCc1c(Cl)ccc(F)c1Cl
- IC50 [1]: 8600 nM

Compound: CC(Oc1c(N)ncc2c(-c3cnn(C4CCNCC4)c3)coc12)c1c(Br)ccc(F)c1Cl (racemic)
- IC50 [1]: 510 nM

Compound: CC(Oc1c(N)ncc2c(-c3cnn(C4CCNCC4)c3)coc12)c1cccc(F)c1Cl (racemic)
- IC50 [1]: 5100 nM

Compound: C[C@@H](Oc1c(N)ncc2c(-c3cccnc3)coc12)c1c(Cl)ccc(F)c1Cl
- IC50 [1]: 2700 nM

Compound: CCC(Oc1c(N)ncc2c(-c3cnn(C4CCNCC4)c3)coc12)c1c(Cl)ccc(F)c1Cl (racemic)
- IC50 [1]: 3600 nM

Compound: C[C@@H](Oc1c(N)ncc2c(C3=CCN(C(N)=O)CC3)coc12)c1c(Cl)ccc(F)c1Cl
- inhibition [25]: > 50%
- inhibition [26]: > 50%
- inhibition [27]: Active
- inhibition [28]: > 50%
- inhibition [29]: > 50%
- TGI [30]: inactive
- Ratio IC50 [4]: 3

Compound: CNC(=O)N1CC=C(c2coc3c(O[C@H](C)c4c(Cl)ccc(F)c4Cl)c(N)ncc23)CC1
- IC50 [1]: 190 nM

Compound: C[C@@H](Oc1c(N)ncc2c(C3CCNCC3)coc12)c1c(Cl)ccc(F)c1Cl
- IC50 [1]: 3100 nM

Compound: C[C@@H](Oc1c(N)ncc2c(-c3ccncc3)coc12)c1c(Cl)ccc(F)c1Cl
- IC50 [1]: 900 nM

Compound: C[C@@H](Oc1c(N)ncc2c(C3=CCN(C(=O)N(C)C)CC3)coc12)c1c(Cl)ccc(F)c1Cl
- IC50 [1]: 510 nM

Compound: C[C@@H](Oc1c(N)ncc2c(-c3cn[nH]c3)coc12)c1c(Cl)ccc(F)c1Cl
- IC50 [1]: 3300 nM

Compound: CC(Oc1c(N)ncc2c(-c3cnn(C4CCNCC4)c3)coc12)c1c(Cl)cc(Cl)cc1Cl (racemic)
- IC50 [1]: 3600 nM

Compound: CNC(=O)c1coc2c(O[C@H](C)c3c(Cl)ccc(F)c3Cl)c(N)ncc12
- IC50 [1]: 3500 nM

Compound: CC(Oc1c(N)ncc2c(-c3cnn(C4CCNCC4)c3)coc12)c1c(Cl)c(F)cc(F)c1Cl (racemic)
- IC50 [1]: 480 nM

Compound: COc1ccc(Cl)c([C@@H](C)Oc2c(N)ncc3c(-c4cnn(C5CCNCC5)c4)coc23)c1Cl
- IC50 [1]: 1600 nM

Compound: C[C@@H](Oc1c(N)ncc2c(C3=CCNCC3)coc12)c1c(Cl)ccc(F)c1Cl
- IC50 [1]: 450 nM

Compound: CCCC(Oc1c(N)ncc2c(-c3cnn(C4CCNCC4)c3)coc12)c1c(Cl)ccc(F)c1Cl (racemic)
- IC50 [1]: 2700 nM

Compound: CC(=O)N1CCC(n2cc(-c3coc4c(O[C@H](C)c5c(Cl)ccc(F)c5Cl)c(N)ncc34)cn2)CC1
- IC50 [1]: 670 nM
- Papp [21]: 318 ×10⁻⁶ cm/s

Compound: CC(Oc1c(N)ncc2c(-c3cnn(C4CCNCC4)c3)coc12)c1c(Cl)cccc1Cl (racemic)
- IC50 [1]: 2000 nM
